Consider six compounds from US12006314B2, “Anti-cancer nuclear hormone receptor-targeting compounds” (Nuvation Bio Inc., priority 2021, dated 2024).

The target of experiment [1] is T1, ER Alpha-ligand binding domain (LBD) (Homo sapiens, UniProt P03372).
T1 sequence (P03372 311-547 limits assumed): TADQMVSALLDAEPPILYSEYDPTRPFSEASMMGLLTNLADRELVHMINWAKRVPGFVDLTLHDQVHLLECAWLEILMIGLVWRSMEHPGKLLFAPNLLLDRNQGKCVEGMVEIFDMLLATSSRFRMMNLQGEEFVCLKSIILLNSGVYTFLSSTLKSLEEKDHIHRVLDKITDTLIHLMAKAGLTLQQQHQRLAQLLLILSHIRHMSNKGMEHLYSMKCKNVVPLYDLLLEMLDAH
The experiment in a line: ER binding assay (LanthaScreen TR-FRET ER Alpha Competitive Binding). The note with it: Fluormone ES2 Green tracer 3 nM, 2 h. How it is done:
ER binding assay: ERα binding was assessed using the LanthaScreen® TR-FRET ER Alpha Competitive Binding kit from ThermoFisherScientific. In this assay, a terbium-labeled anti-GST antibody was used to indirectly label GST-tagged ER Alpha-ligand binding domain (LBD) by binding to its GST tag. Competitive binding to the ER Alpha-LBD (GST) was detected by a test compound's ability to displace a fluorescent ligand (Fluormone™ ES2 Green tracer) from the ER Alpha-LBD (GST), which results in a loss of FRET signal between the Tb-anti-GST antibody and the tracer. To assess ER binding, test compound (top dose 10 μM, 4 fold serial dilution, 8 point dose response) and controls (e.g. estradiol) were transferred to the assay plate. The Fluormone™ ES2 Green tracer (3 nM final concentration with assay buffer) was added to the assay plate. This was followed by addition of a mixture of the ER Alpha-LBD (GST) and terbium anti-GST antibody. After a 2 h incubation period at room temperature, the plate was read on the Envision plate reader and the TR-FRET ratio of 520:495 emissions were calculated and used to determine the IC50 from a dose response curve of the compound.

Experiment [2] deals with T2, ER (SK-BR-3 cells transfected with ERE plasmid and ER) (Homo sapiens, UniProt P03372).
T2 construct: expressed in transfected cells; host or cells: SK-BR-3 (transient, lipofectamine 3000)
T2 sequence (P03372 1-595): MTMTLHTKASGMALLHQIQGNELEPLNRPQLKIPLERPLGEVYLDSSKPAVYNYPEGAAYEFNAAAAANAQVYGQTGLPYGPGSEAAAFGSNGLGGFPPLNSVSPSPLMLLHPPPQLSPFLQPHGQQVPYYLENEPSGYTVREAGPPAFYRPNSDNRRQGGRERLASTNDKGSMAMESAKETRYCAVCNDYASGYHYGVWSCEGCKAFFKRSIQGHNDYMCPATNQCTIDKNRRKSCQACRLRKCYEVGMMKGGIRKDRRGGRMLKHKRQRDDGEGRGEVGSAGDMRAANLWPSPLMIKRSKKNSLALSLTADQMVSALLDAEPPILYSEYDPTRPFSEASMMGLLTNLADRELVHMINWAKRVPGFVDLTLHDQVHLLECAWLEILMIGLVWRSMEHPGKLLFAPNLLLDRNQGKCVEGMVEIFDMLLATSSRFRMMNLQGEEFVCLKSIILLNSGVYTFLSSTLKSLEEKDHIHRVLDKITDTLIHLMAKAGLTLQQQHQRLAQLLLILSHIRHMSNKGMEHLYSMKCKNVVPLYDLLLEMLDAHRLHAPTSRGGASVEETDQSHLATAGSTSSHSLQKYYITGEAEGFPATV
The experiment in a line: ER antagonism assay. Particulars: 100 nM β-Estradiol, 24 h, Dual-glo luciferase. Format: cell-based. How it is done: ER antagonism assay: To evaluate ER antagonist activity, SK-BR-3 cells were seeded at a density of 30000 cells/well in the assay plate. The assay plate was then incubated at 37° C., 5% CO2 for 24 h. A mixture of ERE plasmid and ER in opti-MEM media was incubated with lipofectamine 3000 in Opti-MEM media and incubated at room temperature for 15 minutes. 10 μL of this transfection mix was added to each well of the assay plate and the assay plate was incubated at 37° C., 5% CO2 for 24 h. 100 nM β-Estradiol in 10 μL medium or 10 μL medium (control wells) was added to corresponding wells of assay plate and incubated at 37° C. 5% CO2 for 24 h. After the incubation period, 50 μL of Dual-glo luciferase reagent was added to the assay plate and mixed at room temperature for 20 mins on an orbital shaker, before reading out on the EnVision plate reader. 50 μL of Stop & Glo reagent was added to assay plate, mixed at room temperature for 20 minutes, and read on the Envision plate reader.

A further experiment concerns MCF7 cells. Nature of the experiment: Cell viability assay MCF7. Format: cell-based. The note with it: Homo sapiens, MCF7, 144 h; 6 days, CellTiterGlo. How it is done:
(§1) Cell viability assay: LNCap, 22Rv1, MCF7, MDAMB361, T47D, and IEC6 cells were seeded at a density of 500-2000 cells/well in 96 well plates, and a ‘T0’ (timepoint 0) was included along with the assay plate. The plates were then incubated at 37° C., 5% CO2 in a cell culture incubator overnight. On the next day, the ‘T0’ plate was assayed using CellTiterGlo (Promega, Inc) according to the manufacturer's instructions. The appropriate compounds were diluted in DMSO and added to the assay plate (final DMSO concentration of 0.1-0.2%) on the next day. The assay plates were incubated for 6 days at 37° C., 5% CO2. After the incubation period, the plates were assayed using CellTiterGlo (Promega, Inc) according to the manufacturer's instructions and luminescence was read on the EnVision plate reader. Inhibition of the tested compounds was determined by the following formula: Inhibition rate (%)=(1−(RLU compound−RLU day0)/(RLU control−RLU day0))*100%. GraphPadPrism was used to analyze the data and determine GI50/IC50 values.
Background: ATP-based viability assays read luminescence as a measure of living cells.

In the next experiment the test system is MDAMB361 cells. The experiment in a line: Cell viability assay MDAMB361. The experiment is classed as cell-based. Particulars: Homo sapiens, MDA-MB-361, 144 h; 6 days, CellTiterGlo. How it is done:
as §1

For the next experiment, the system named is IEC6 cells. Nature of the experiment: Cell viability assay IEC6. Format: cell-based. Particulars: Rattus norvegicus, IEC-6, 144 h; 6 days, CellTiterGlo. How it is done: as §1

Some results are limits rather than exact numbers.

As for `CCc1cc2ncc(CN3CCN(C(=O)CCCCCOc4cc(F)c([C@@H]5c6[nH]c7ccccc7c6C[C@@H](C)N5CC(C)(C)F)c(F)c4)CC3)cc2[nH]c1=O` [Compound 61, 7-((4-(6-(3,5-Difluoro-4-((1R,3R)-2-(2-fluoro-2-methylpropyl)-3-methyl-2,3,4,9-tetrahydro-1H-pyrido[3,4-b]indol-1-yl)phenoxy)hexanoyl)piperazin-1-yl)methyl)-3-ethyl-1,5-naphthyridin-2(1H)-one], the IC50 in experiment [1] is at most 100 nM; in experiment [2], at most 100 nM; in the experiment on IEC6 cells it was above 30000 nM. Also, the GI50 is at most 500 nM with MCF7 cells and above 30000 nM with MDAMB361 cells.

Turning to `CCc1cc2ncc(CN3CCN(C(=O)[C@H]4CC[C@H](COc5cc(F)c([C@@H]6c7[nH]c8ccccc8c7C[C@@H](C)N6CC(C)(C)F)c(F)c5)CC4)CC3)cc2[nH]c1=O` [Compound 70, 7-((4-((1r,4r)-4-((3,5-Difluoro-4-((1R,3R)-2-(2-fluoro-2-methylpropyl)-3-methyl-2,3,4,9-tetrahydro-1H-pyrido[3,4-b]indol-1-yl)phenoxy)methyl)cyclohexane-1-carbonyl)piperazin-1-yl)methyl)-3-ethyl-1,5-naphthyridin-2(1H)-one], the 50% inhibitory concentration (IC50) in experiment [2] is at most 100 nM; in the experiment with IEC6 cells, above 30000 nM. Further, the GI50 in the experiment on MCF7 cells is 5000 to 30000 nM; in the experiment on MDAMB361 cells, at most 500 nM.

In the case of `CCc1cc2ncc(CN3CCN(CCOc4cc(F)c([C@@H]5c6[nH]c7ccccc7c6C[C@@H](C)N5CC(C)(C)F)c(F)c4)CC3)cc2[nH]c1=O` [Compound 71, 7-((4-(2-(3,5-Difluoro-4-((1R,3R)-2-(2-fluoro-2-methylpropyl)-3-methyl-2,3,4,9-tetrahydro-1H-pyrido[3,4-b]indol-1-yl)phenoxy)ethyl)piperazin-1-yl)methyl)-3-ethyl-1,5-naphthyridin-2(1H)-one], the IC50 in experiment [2] was at most 100 nM; with IEC6 cells it was 500 to 5000 nM. The GI50 was at most 500 nM in the experiment with MCF7 cells and 500 to 5000 nM in the experiment on MDAMB361 cells.

Regarding `CCc1cc2ncc(CN3CCN(CCCCCCOc4cc(F)c([C@@H]5c6[nH]c7ccccc7c6C[C@@H](C)N5CC(C)(C)F)c(F)c4)CC3)cc2[nH]c1=O` [Compound 72, 7-((4-(6-(3,5-Difluoro-4-((1R,3R)-2-(2-fluoro-2-methylpropyl)-3-methyl-2,3,4,9-tetrahydro-1H-1-pyrido[3,4-b]indol-1-yl)phenoxy)hexyl)piperazin-1-yl)methyl)-3-ethyl-1,5-naphthyridin-2(1H)-one], the concentration for half-maximal inhibition (IC50) in experiment [2] is at most 100 nM; with IEC6 cells, 5000 to 30000 nM. In addition, the GI50 with MCF7 cells and with MDAMB361 cells was at most 500 nM each time.

Regarding `CCc1cc2ncc(CN3CCN(C(=O)COc4cc(F)c([C@@H]5c6[nH]c7ccccc7c6C[C@@H](C)N5CC(C)(C)F)c(F)c4)CC3)cc2[nH]c1=O` [Compound 73, 7-((4-(2-(3,5-Difluoro-4-((1R,3R)-2-(2-fluoro-2-methylpropyl)-3-methyl-2,3,4,9-tetrahydro-1H-pyrido[3,4-b]indol-1-yl)phenoxy)acetyl)piperazin-1-yl)methyl)-3-ethyl-1,5-naphthyridin-2(1H)-one], the half-maximal inhibitory concentration (IC50) in experiment [2] was at most 100 nM; in the experiment with IEC6 cells, above 30000 nM. For the same compound, the GI50 in the experiment with MCF7 cells and in the experiment with MDAMB361 cells was at most 500 nM each time.

Consider `CCc1cc2ncc(CN3CCC(N(C)C(=O)COc4cc(F)c([C@@H]5c6[nH]c7ccccc7c6C[C@@H](C)N5CC(C)(C)F)c(F)c4)CC3)cc2[nH]c1=O` [Compound 74, 2-(3,5-Difluoro-4-((1R,3R)-2-(2-fluoro-2-methylpropyl)-3-methyl-2,3,4,9-tetrahydro-1H-pyrido[3,4-b]indol-1-yl)phenoxy)-N-(1-((7-ethyl-6-oxo-5,6-dihydro-1,5-naphthyridin-3-yl)methyl)piperidin-4-yl)-N-methylacetamide], for which the half-maximal inhibitory concentration (IC50) in experiment [2] is at most 100 nM; in the experiment on IEC6 cells, 500 to 5000 nM. For the same compound, the concentration for 50% growth inhibition (GI50) in the experiment with MCF7 cells and in the experiment on MDAMB361 cells was at most 500 nM in each case.

Usually IC50 stands for the concentration needed to halve the response being measured. Usually GI50 stands for the concentration giving 50% growth inhibition. Read a high GI50 as lower sensitivity of the cells.
